Source: EP0819121B1, “TRICYCLIC COMPOUNDS USEFUL FOR INHIBITION OF G-PROTEIN FUNCTION AND FOR TREATMENT OF PROLIFERATIVE DISEASES” (SCHERING CORPORATION, priority 1995, dated 1996)
Like-named read-outs stand apart in the source and are kept apart here.

Columns and labels:
[1] = target: farnesyl protein transferase (Homo sapiens, UniProt P49354+P49356); assay: FPT inhibition, in vitro enzyme assay (SPA, transfer of [3H]farnesyl to biotinylated Ras-peptide; or methods of WO 95/10516); type: biochemical; conditions: values given as ranges
Experimental: (§1) In some assays, FPT IC50 (inhibition of farnesyl protein transferase, in vitro enzyme assay) is determined by the methods described in WO 95/10516. COS Cell IC50 (Cell-Based Assay) and Cell Mat assay are determined by the methods described in WO 95/10516. GGPT IC50 (geranylgeranyl protein transferase, in vitro enzyme assay) and in vitro tumor activity can be determined by the methods disclosed in WO 95/10516.
In some assays, the inhibition of famesyi protein transferase was assayed by measuring the transfer of [^3H]farnesyl from [^3H]famesylpyrophosphate to biotinylated Ras-peptide (biotin-KKSKTKCVIM) using the conditions described below for each 96-well plate to be tested.
An assay buffer is prepared consisting of 40 mM Hepes, pH 7.5; 5 mM dithiothreitol; 20 mM magnesium chloride and 0.01 (v/v)% Igepal nonionic detergent.
A SPA (scintillation proximity assay) bead suspension is prepared consisting of 50 mg of Streptavidin SPA beads (Amersham Life-Science) suspended in 2.5 mL of PBS (phosphate buffered saline). Immediately prior to running the assay a stop solution is prepared consisting of 480 µL of the SPA bead suspension mixed with 6720 µL of a solution consisting of 250 mM EDTA (pH 8.0) and 0.5% Bovine Serium Albumin (Fraction V, 96-99% albumin).
(§2) In some assays, to determine FPT IC50, an assay mixture is prepared consisting of 480 µL of assay buffer and 3052.8 µL of water. This mixture is vortexed to homogeneity and 48 µL of the Ras peptide is added. The mixture is vortexed and 15.36 µL of FPP and 3.84 µL of [^3H]FPP are added and the mixture vortexed again. 37.5 µL of this assay mixture and 2.5µL of a DMSO solution (at test concentration) of the compound being tested are then added to each well of a Costar polypropylene U-bottom microtiter plate. The plate is sonicated for 15 minutes at 37°C and then shaken for 15 minutes on a plate shaker. 10 µL of the enzyme (recombinant Human farnesyl protein transferase) is added to each well using a Beckman Biomek 2000. The plate is incubated at room temperature for 20 minutes and then quenched with 75 µL of the stop solution. 100 µL of the quenched reaction mixture from each well is then transferred to a Wallac crosstalk-free microtiter plate using a Beckman Biomek 2000. Radioactivity is measured in a Wallac 1450 Microbeta plus liquid scintillation counter. Percent inhibition is calculated relative to an uninhibited control.
as §2, with “farnesyl transferase inhibition,” for “FPT IC50,”, “buffer,” for “buffer and”, “water and 240 µL of DMSO.” for “water.”, “40” for “37.5”, “is” for “and 2.5µL of a DMSO solution (at test concentration) of the compound being tested are”, “plate, each well of which contains a dry sample of the compound being tested.” for “plate.”

COS Cells = assay: COS cell assay, inhibition of RAS processing (cell-based, methods of WO 95/10516)
Experimental: as §1

Tumor Cells = assay: Cell Mat assay, cell growth inhibition, tumor cells (methods of WO 95/10516); type: cell-based
Experimental: as §1

Normal Cells = assay: Cell Mat assay, cell growth inhibition, normal cells (methods of WO 95/10516); type: cell-based
Experimental: as §1

[2] = read-out: Activity in COS Cells Inhibition of RAS Processing IC50
[3] = read-out: Cell Growth Inhibition MAT Assay Tumor Cells IC50
[4] = read-out: Cell Growth Inhibition MAT Assay Normal Cells IC50
[5] = read-out: Activity in COS Cells Inhibition of RAS Processing IC50 in µM

Row | Structure (SMILES) | FPT Inhibition IC50 [1] [nM] | also measured
1 | N[C@@H](CS)CN1CCN(C2c3ccc(Cl)cc3CCc3cc(Br)cnc32)CC1 (some centres unmarked) [EX1] |  | IC50 [1]: > 100000 nM
2 | O=C(CC1CN(C2c3ccc(Cl)cc3CCc3cc(Br)cnc32)CCN1C(=O)Cc1ccncc1)NC1CC1 (centres unmarked) [EX 54] | 10 to 10000 | 
3 | CC(C)NC(=O)C1CN(C2c3ccc(Cl)cc3CCc3cc(Br)cnc32)CCN1C(=O)Cc1cccnc1 (centres unmarked) [EX 32-B] | 10 to 10000 | 
4 | N[C@@H](CS)CN1CCC(=C2c3ccc(Cl)cc3CCc3cc(Br)cnc32)CC1 [EX 56A] |  | IC50 [1]: > 100000 nM
5 | N[C@@H](CS)C(=O)N1CCN(C2c3ccc(Cl)cc3CCc3cc(Br)cnc32)CC1 (some centres unmarked) [EX 21, Step B] | 10 to 10000 | 
6 | CC(C)N(C)C(=O)C1CN(C2c3ccc(Cl)cc3CCc3cc(Br)cnc32)CCN1C(=O)Cc1ccncc1 (centres unmarked) [EX 56] | 10 to 10000 | 
7 | CC(C)NC(=O)CC1CN(C2c3ccc(Cl)cc3CCc3cc(Br)cnc32)CCN1C(=O)Cc1cccnc1 (centres unmarked) [EX 34] | 10 to 10000 | 
8 | CN(Cc1ccccc1[N+](=O)[O-])C(=O)C1CN(C2c3ccc(Cl)cc3CCc3cc(Br)cnc32)CCN1C(=O)Cc1cccnc1 (centres unmarked) [EX 48] |  | IC50 [1]: 10000 to 100000 nM
9 | COCC[C@H]1CN(C2c3ccc(Cl)cc3CCc3cc(Br)cnc32)CCN1C(=O)CC1CCN(C(N)=O)CC1 (some centres unmarked) [EX 39, Step C] | 10 to 10000 | IC50 (COS Cells; [2]): 0.01 to 10 µM; IC50 (Tumor Cells; [3]): < 1.6 µM; IC50 (Normal Cells; [4]): > 25 µM
10 | CNC(=O)CC1CN(C2c3ccc(Cl)cc3CCc3cc(Br)cnc32)CCN1C(=O)Cc1cccnc1 (centres unmarked) [EX 46] | 10 to 10000 | 
11 | COc1ccc(CSC[C@H](N)C(=O)N2CCC(=C3c4ccc(Cl)cc4CCc4cccnc43)CC2)cc1 [EX 31] | 10 to 10000 | IC50 (Tumor Cells; [3]): 12.5 µM; IC50 (Normal Cells; [4]): 18 µM
12 | CNC(=O)C1CN(C2c3ccc(Cl)cc3CCc3cc(Br)cnc32)CCN1C(=O)Cc1cccnc1 (centres unmarked) [EX 32-A] | 10 to 10000 | 
13 | CCCCNC(=O)C1CN(C2c3ccc(Cl)cc3CCc3cc(Br)cnc32)CCN1C(=O)OC1CCN(C(C)=O)CC1 (centres unmarked) [EX 44] | 10 to 10000 | 
14 | CCOC(=O)C1CN(C2c3ccc(Cl)cc3CCc3cc(Br)cnc32)CCN1C(=O)Cc1cccnc1 (centres unmarked) [EX 33] | 10 to 10000 | 
15 | COCC[C@H]1CN(C2c3ccc(Cl)cc3CCc3cc(Br)cnc32)CCN1C(=O)CC1CCNCC1 (some centres unmarked) [EX 39, Step B] | 10 to 10000 | 
16 | N[C@@H](CSSC[C@H](N)C(=O)N1CCN(C2c3ccc(Cl)cc3CCc3cc(Br)cnc32)CC1)C(=O)N1CCN(C2c3ccc(Cl)cc3CCc3cc(Br)cnc32)CC1 (some centres unmarked) [EX 20, Step B] | 10 to 10000 | 
17 | O=C(NC1CC1)C1CN(C2c3ccc(Cl)cc3CCc3cc(Br)cnc32)CCN1C(=O)Cc1ccncc1 (centres unmarked) [EX 47] | 10 to 10000 | 
18 | CC(C)NC(=O)C1CN(C2c3ccc(Cl)cc3CCc3cc(Br)cnc32)CCN1C(=O)Cc1ccncc1 (centres unmarked) [EX 32-C] | 10 to 10000 | 
19 | O=C(Cc1ccncc1)N1CCN(C2c3ccc(Cl)cc3CCc3cc(Br)cnc32)CC1CO (centres unmarked) [EX 50] | 10 to 10000 | 
20 | CNC(=O)C1CN(C2c3ccc(Cl)cc3CCc3cc(Br)cnc32)CCN1C(=O)Cc1ccncc1 (centres unmarked) [EX 55] | 10 to 10000 | 
21 | COCC[C@H]1CN(C2c3ccc(Cl)cc3CCc3cc(Br)cnc32)CCN1C(=O)Cc1cc[n+]([O-])cc1 (some centres unmarked) [Ex 38] | 10 to 10000 | IC50 (COS Cells; [5]): 0.01 to 10 µM
22 | CCCC[C@H]1CN(C2c3ccc(Cl)cc3CCc3cc(Br)cnc32)CCN1C(=O)CC1CCN(C(N)=O)CC1 (some centres unmarked) [EX 37, Step C] | 10 to 10000 | IC50 (COS Cells; [2]): 0.01 to 10 µM; IC50 (Tumor Cells; [3]): 3.1 µM; IC50 (Normal Cells; [4]): 18 µM
23 | CNC(=O)CC1CN(C2c3ccc(Cl)cc3CCc3cc(Br)cnc32)CCN1C(=O)Cc1ccncc1 (centres unmarked) [EX 51] | 10 to 10000 | 
24 | CCCCNC(=O)C1CN(C2c3ccc(Cl)cc3CCc3cc(Br)cnc32)CCN1C(=O)CC1CCN(C(N)=O)CC1 (centres unmarked) [EX 41] | 10 to 10000 | 
25 | CCCC[C@H]1CN(C2c3ccc(Cl)cc3CCc3cc(Br)cnc32)CCN1C(=O)Cc1cc[n+]([O-])cc1 (some centres unmarked) [EX 36] | 10 to 10000 | IC50 (COS Cells; [5]): 0.01 to 10 µM; IC50 (Tumor Cells; read-out: Cell Growth Inhibition MAT Assay Tumor Cells IC50 in µM): 1.6 µM; IC50 (Normal Cells; read-out: Cell Growth Inhibition MAT Assay Normal Cells IC50 in µM): > 25 µM
26 | O=C(NCc1cccnc1)C1CN(C2c3ccc(Cl)cc3CCc3cc(Br)cnc32)CCN1C(=O)CCc1ccccc1 (centres unmarked) [EX 43] | 10 to 10000 | 
27 | COc1ccc(CSC[C@H](NC(=O)OC(C)(C)C)C(=O)N2CCC(=C3c4ccc(Cl)cc4CCc4cccnc43)CC2)cc1 [EX 30] | 10 to 10000 | IC50 (Tumor Cells; [3]): > 50 µM; IC50 (Normal Cells; [4]): > 50 µM
